Measured values: patent US10947237B2, “Antimicrobial compounds and methods of making and using the same” (BIOVERSYS AG, priority 2015, dated 2021)

How the values were obtained:
[1] = system: Eschericia coli (E. Coli) strain ATCC25922; assay: standard microdilution assay, minimum inhibitory concentration (MIC); type: cell-based; details: Escherichia coli
How it was run: (§1)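 Compounds were scored +/− against a 16 µg/mL MIC cutoff, using CLSI-based microdilution with QC reference strains. The organisms were S. aureus 11540 and E. coli ATCC25922.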

[2] = system: Staphylococcus aureus (S. aureus) 11540 strain; assay: as above; type: cell-based
How it was run: as §1

Row | SMILES | MIC ([1]; Table 2, strain ATCC25922) [mg/L] | MIC ([2]; Table 2, 11540 strain) [mg/L] | MIC ([1]; ATCC25922, Table 2a) [mg/L] | MIC ([2]; Table 2a) [mg/L]
1 | C[C@H](N)CCCc1cc(Cl)c(F)c(-c2cc3cn(-c4ccc([C@@H]5CCC[C@@H](CCNC(=N)C6CC6)N5)cc4)c(=O)nc3[nH]2)c1 [Compound 83] | ≤ 16 | ≤ 16 |  | 
2 | COc1ccc(CNc2ncc(CC[C@@H](CCNC(=N)N)NCc3ccc(-n4cc5cc(-c6cc(CCC[C@H](C)N)cc(Cl)c6F)[nH]c5nc4=O)cc3)s2)cc1 [Compound 25] | ≤ 16 | ≤ 16 |  | 
3 | C[C@H](N)CCCc1cc(Cl)c(F)c(-c2cc3cn(-c4ccc([C@H]5CC(NC(=N)N)C[C@H](CCNC(=N)N)O5)cc4)c(=O)nc3[nH]2)c1 (some centres unmarked) [Compound 128] | ≤ 16 | ≤ 16 |  | 
4 | CC(=N)NC[C@H](CCNC(=N)N)OCc1ccc(-n2cc3cc(-c4cc(CCC[C@H](C)N)cc(Cl)c4F)[nH]c3nc2=O)cc1 [Compound 175] |  |  | ≤ 16 | ≤ 16
5 | N=C(N)NCC[C@H](CNc1ccccn1)OCc1ccc(-n2cc3cc(C4CCNC4)[nH]c3nc2=O)cc1 (some centres unmarked) [Compound 103] | > 16 | > 16 |  | 
6 | CC(=N)NCC[C@@H](CNC(C)=N)OCc1ccc(-n2cc3cc(-c4cc(CCC[C@H](C)N)cc(Cl)c4F)[nH]c3nc2=O)cc1 [Compound 173] |  |  | ≤ 16 | ≤ 16
7 | C[C@H](N)CCCC1CC(c2cc3cn(-c4ccc([C@H](C)NCCCNC(=N)N)cc4)c(=O)nc3[nH]2)CCN1 (some centres unmarked) [Compound 152] | ≤ 16 | ≤ 16 |  | 
8 | C[C@H](N)CCCc1cc(Cl)c(F)c(-c2cc3cn(-c4ccc([C@@H]5CCC[C@@H](CCNC(=N)C6CCC6)N5)cc4)c(=O)nc3[nH]2)c1 [Compound 84] | ≤ 16 | ≤ 16 |  | 
9 | CC(C)(N)CCCc1cc(Cl)c(F)c(-c2cc3cn(-c4ccc(CO[C@H](CCNC(=N)N)CNC(=N)N)cc4)c(=O)nc3[nH]2)c1 [Compound 166] |  |  | ≤ 16 | ≤ 16
10 | N=C(N)NCC[C@H](CF)NCc1ccc(-n2cc3cc(C4CCNC4)[nH]c3nc2=O)cc1 (some centres unmarked) [Compound 126] | > 16 | > 16 |  | 
11 | N=C(CF)NCC[C@@H]1CCC[C@@H](c2ccc(-n3cc4cc(-c5cc(CCC[C@@H](N)CO)cc(Cl)c5F)[nH]c4nc3=O)cc2)N1 [Compound 150] | ≤ 16 | ≤ 16 |  | 
12 | C[C@H](N)CCCc1cc(Cl)c(F)c(-c2cc3cn(-c4ccc([C@@H]5CCC[C@@H](C[C@H](O)c6ccn[nH]6)N5)cc4)c(=O)nc3[nH]2)c1 [Compound 23] | > 16 | ≤ 16 |  | 
13 | CC(=N)NCC[C@H](CN)OCc1ccc(-n2cc3cc(-c4cc(CCC[C@H](C)N)cc(Cl)c4F)[nH]c3nc2=O)cc1 [Compound 176] |  |  | ≤ 16 | ≤ 16
14 | O=c1nc2[nH]c(C3CCNC3)cc2cn1-c1ccc([C@@H]2CCC[C@@H](CCNc3ncc[nH]3)N2)cc1 (some centres unmarked) [Compound 94] | ≤ 16 | > 16 |  | 
15 | C[C@H](N)CCCc1cc(Cl)c(F)c(-c2cc3cn(-c4ccc([C@@H]5CCC[C@@H](CCn6ccoc6=O)N5)cc4)c(=O)nc3[nH]2)c1 [Compound 17] | ≤ 16 | ≤ 16 |  | 
16 | C[C@H](N)CCCc1cc(Cl)c(F)c(-c2cc3cn(-c4ccc(CN[C@@H](CF)CCNC(=N)N)cc4)c(=O)nc3[nH]2)c1 [Compound 107] | ≤ 16 | ≤ 16 |  | 
17 | C[C@H](N)CCCc1cc(Cl)c(F)c(-c2cc3cn(-c4ccc(CN[C@H](CCNC(=N)N)CNc5ncccc5F)cc4)c(=O)nc3[nH]2)c1 [Compound 106] | ≤ 16 | ≤ 16 |  | 
18 | C[C@H](N)CCCc1cc(Cl)c(F)c(-c2cc3cn(-c4ccc([C@@H]5CC(CCNC(=N)N)CC(CO)O5)cc4)c(=O)nc3[nH]2)c1 (some centres unmarked) [Compound 88] | ≤ 16 | ≤ 16 |  | 
19 | N=C(N)NCC[C@@H]1C[C@@H](Nc2nccs2)C[C@@H](c2ccc(-n3cc4cc(C5CCNC5)[nH]c4nc3=O)cc2)O1 (some centres unmarked) [Compound 125] | > 16 | > 16 |  | 
20 | C[C@H](N)CCCc1cc(Cl)c(F)c(-c2cc3cn(-c4ccc([C@H]5CC(N)C[C@H](CCNC(=N)N)O5)cc4)c(=O)nc3[nH]2)c1 (some centres unmarked) [Compound 119] | ≤ 16 | ≤ 16 |  | 
21 | C[C@H](N)CCCc1cc(Cl)c(F)c(-c2cc3cn(-c4ccc(CN[C@H](CCNC(=N)N)CNc5nnn[nH]5)cc4)c(=O)nc3[nH]2)c1 [Compound 49] | ≤ 16 | ≤ 16 |  | 
22 | C[C@H](N)CCCc1cc(Cl)c(F)c(-c2cc3cn(-c4ccc(CN[C@H](CCNC(=N)N)CNc5cccc6sccc56)cc4)c(=O)nc3[nH]2)c1 [Compound 36] | ≤ 16 | ≤ 16 |  | 
23 | N=C(N)NCC[C@@H]1CN(c2ccc(-n3cc4cc(C5CCNC5)[nH]c4nc3=O)cc2)CCO1 (some centres unmarked) [Compound 147] | > 16 | > 16 |  | 
24 | C=C[C@@H](CCNC(=N)N)NCc1ccc(-n2cc3cc(-c4cc([C@H]5CC[C@H](CN)O5)cc(Cl)c4F)[nH]c3nc2=O)cc1 [Compound 139] | ≤ 16 | ≤ 16 |  | 
25 | C[C@H](N)CCCc1cc(Cl)c(F)c(-c2cc3cn(-c4ccc([C@H]5CC(N)C[C@H](CCNC6=NCCN6)O5)cc4)c(=O)nc3[nH]2)c1 (some centres unmarked) [Compound 143] | ≤ 16 | ≤ 16 |  | 
